System: E. floccosum
Experiment: Checkerboard combination testing of compound 8 with antifungals, FIC (Example 1)
Type: cell-based, Epidermophyton floccosum
Settings: in combination with Cpd 8, one value per clinical isolate (Strain # 1-6)
Description: This example describes the in vitro activity of combinations of compounds according to the present invention and antifungal agents against a collection of dermatophytic fungal pathogens. Antifungal susceptibility testing was adapted from the CLSI M38-A broth microdilution method for dermatophytes (NCCLS-M38-A2 2008). Combination testing was performed by checkerboard method (with compound 8 in combination with fluconazole, itraconazole or terbinafine). A total of 30 isolates of 5 different fungal species were tested in the combination test: 6 isolates each of Trichophyton tonsurans, Trichophyton rubrum, Epidermophyton floccosum, Trichophyton mentagrophytes and Microsporum canis. Clinical isolates were obtained by the Laboratory of Dr. M. Ghannoum at Case Western University.
Synergy was assessed using the fractional inhibitory concentration (FIC), an interaction coefficient, with the following definitions:
The fold reduction of the itraconazole minimum inhibitory concentration (MIC) was also evaluated.

- MIC (Epidermophyton floccosum, read-out: Itraconazole MIC with Cpd 8): 0.015 µg/mL
- Itraconazole MIC with Cpd 8: 0.008 µg/mL
Compound: CCC(C)n1ncn(-c2ccc(N3CCN(c4ccc(OCC5COC(Cn6cncn6)(c6ccc(Cl)cc6Cl)O5)cc4)CC3)cc2)c1=O (centres unmarked) [Itraconazole, itraconazole, reference compound]

— patent US20120046331A1, “Antifungal Agents and Uses Thereof” (priority 2010, published 2012)
